# Measured values: patent US20260041653A1, “AN HDAC INHIBITOR FOR TREATING CANCER WITH A MODIFIED STK11 ACTIVITY OR EXPRESSION” (Tango Therapeutics, Inc., priority 2022, published 2026)
# Assay: Stability in human liver microsomes
# Assay type: in vitro ADME
# Conditions: 240 minutes; HLM protein concentration 0.6 mg/ml
# Protocol: Drug metabolizing enzymes involved in the biotransformation of Compound I were investigated using human liver microsomes (HLM) and recombinant enzymes. Compound I was stable in HLMs (>93% remaining after 240 minutes of incubation with HLM protein concentration at 0.6 mg/ml). CYP selective inhibitor experiments were not performed due to lack of appreciable Compound I turnover.
smiles,measurement,value
"C[S@@](=N)(=O)c1ccc(C(=O)Nc2cc(-c3ccc(F)cc3)ccc2N)cc1 [Compound I, (R)—N-(4-amino-4′-fluoro-[1,1′-biphenyl]-3-yl)-4-(S-methylsulfonimidoyl)benzamide]",remaining after incubation with HLM,> 93%
